# Publication PMC3834177 (Cancer Chemotherapy and Pharmacology, 2013)
# Read-outs that look alike come from different tables or passages of the source. Marks after values point to notes of the source that are not given here.
# How the values were obtained:
# [1] = system: mutant FLT3; settings: in vitro; read-out: half-maximal inhibitory concentration (IC50), mutant FLT3; cited from earlier work
# [2] = Midostaurin PK when administered with rifampicin; settings: for AUC(0-t) / Cmax / half-life / Tmax: human, plasma, oral, n = 20; for AUC(0-t): AUC0–last; for AUC(0-t) / Cmax: adjusted geometric mean; for Cmax: C max; for half-life: t 1/2, adjusted geometric mean; for Tmax: t max, median
# Protocol: These endogenous molecules served as exploratory biomarkers for CYP3A4 activity in vivo [21, 22].
# A point estimate and the corresponding 90 % CI for the treatment effect (test vs reference) were calculated. These were anti-logged to obtain the GMR and respective 90 % CI. […] The median difference was estimated with the Hodges–Lehmann estimator and its respective exact two-sided 90 % CI. All formal comparative statistical analyses were performed using SAS software.
# (§1) The concentration of ketoconazole in plasma was assessed using a validated LC–MS/MS assay with an LLOQ of 50.0 ng/mL (WuXi Pharmatech Co, Ltd, China). The concentration of rifampicin in plasma was measured using a validated LC–MS/MS assay with an LLOQ of 5.0 ng/mL (SGS, Cephac Europe, SAS). Plasma concentrations of midazolam and its metabolite 1′-hydroxymidazolam, which is generated by CYP3A4 and CYP3A5 in humans, were measured using a validated LC–MS/MS assay with an LLOQ of ≈0.100 ng/mL (SGS, Cephac Europe, SAS). The plasma concentration of 4β-hydroxycholesterol was measured using a validated LC–MS/MS assay with an LLOQ of 3.0 ng/mL (SGS, Cephac Europe, SAS). The concentrations of 6β-hydroxycortisol and cortisol in urine were determined using validated LC–MS/MS assays with an LLOQ of 10.0 ng/mL for 6β-hydroxycortisol and 1.0 ng/mL for cortisol. The ratio of 6β-hydroxycortisol to cortisol was subsequently calculated (SGS, Cephac Europe, SAS). See Supplementary Table 2 for detailed bioanalytical methods for all 3 studies.
# [3] = system: CYP3A4/5; settings: in vitro; read-out: IC50, CYP3A4/5 activity (midazolam 1′-hydroxylation); cited from earlier work
# [4] = cited from earlier work
# [5] = Midostaurin PK when administered with ketoconazole; settings: for Cmax / Tmax: human, plasma, oral, n = 18; for Cmax: C max, adjusted geometric mean; for Tmax: t max, median
# Protocol: According to the US Food and Drug Administration, ketoconazole 400 mg once daily is the recommended dose to evaluate DDIs involving CYP3A4 inhibition. [drawing 1]
# Adverse events (AEs) were recorded during the study and up to 1 month (28 days) after the end of study. Volunteers remained at the clinic until AEs were common toxicity criteria (CTC) grade ≤1.
# A point estimate and the corresponding 90 % CI for the treatment effect were calculated for the test treatment compared with the reference. These were anti-logged to obtain the point estimate and the 90 % CI for the geometric mean ratio (GMR) on the untransformed scale. […] All ANOVAs were performed using SAS software (SAS Institute Inc., Cary, NC, USA).
# as §1
# [6] = system: human serum protein α1-acid glycoprotein (AAG); design: method as in PMID 11230495; settings: cited from earlier work
# [7] = Safety and tolerability, midazolam study
# From the text: (§2) Both inhibition and induction of midazolam clearance were investigated.
# [8] = Midazolam PK when administered with midostaurin; settings: for AUC(0-inf): AUC0–inf; for AUC(0-inf) / AUC(0-t) / Cmax: adjusted geometric mean; for AUC(0-t): AUC0–last; for Cmax: C max
# From the text: as §2
# Similarly, blood and urine samples were taken on days 1, 3, 6, 7, 8, and 9 to measure the levels of 4β-hydroxycholesterol in plasma and the 6β-hydroxycortisol/cortisol ratio in urine, markers of CYP3A4 activity.
# The PK parameters of midazolam and its metabolites (C max, t max, AUC0–last, AUCinf, and t 1/2) were derived using a noncompartmental method with the aid of WinNonLin 5.2. […] Following log transformation, the primary PK parameters were analyzed using a linear, mixed-effects model using the term of treatment as a fixed factor (reference, test 1, test 2) and subject as a random factor. A point estimate and the corresponding 90 % CI for the difference in test 1 versus reference and the difference in test 2 versus reference were derived from the respective contrasts of the model estimates and anti-logged to obtain the GMR and respective 90 % CI.
# as §1
# [9] = Placebo + midostaurin arm, rifampicin study
# [10] = Placebo + midostaurin arm, ketoconazole study
# [11] = midazolam study: MZ 4 mg (day 1), MZ 4 mg + Mido 100 mg (day 3), Mido 50 mg twice daily (days 4–6)
# [12] = midazolam study: second MZ 4 mg alone (day 8, after Mido)
# [13] = day 8 (after repeated doses of midostaurin) vs day 1
# [14] = human, plasma, oral, 4 mg, plasma, Midazolam (day 1), n = 18
# [15] = human, plasma, oral, 4 mg, plasma, Midazolam (day 8), n = 18
# [16] = human, plasma, oral, plasma, Midazolam + midostaurin (day 3), n = 18
compound,measurement,setting,value
CO[C@@H]1[C@H](N(C)C(=O)c2ccccc2)C[C@H]2O[C@]1(C)n1c3ccccc3c3c4c(c5c6ccccc6n2c5c31)C(=O)NC4O (mixture of isomers) [CGP52421],IC50,[1],0.584 µM
same,decrease in exposure (AUClast) in midostaurin + rifampicin arm,[2]; compared with midostaurin alone,2.45 fold
same,AUC(0-t),[2]; [9],14600 ng·h/mL
same,AUC(0-t),[2]; Rifampicin + midostaurin arm,5960 ng·h/mL
same,Cmax,[2]; [9],196 ng/mL
same,Cmax,[2]; Rifampicin + midostaurin arm,128 ng/mL
same,half-life,[2]; [9],175 h
same,half-life,[2]; Rifampicin + midostaurin arm,87.1 h
same,Tmax,[2]; [9],3 h
same,Tmax,[2]; Rifampicin + midostaurin arm,2.51 h
same,median t max prolonged in midostaurin + placebo arm compared with midostaurin + rifampicin arm,[2]; in vivo,1.2 fold
same,IC50,[3],1.5 µM
same,apparent elimination half-life (t 1/2),[4],384 to 744 h
same,half-life,[4],> 1 month
same,major pathway for elimination,[4],Fecal excretion
same,Cmax,[5]; Ketoconazole + midostaurin arm,70.9 ng/mL
same,Cmax,[5]; [10],145 ng/mL
same,Tmax,[5]; Ketoconazole + midostaurin arm,120 h
same,Tmax,[5]; [10],2 h
same,"t max, Hodges–Lehmann estimate of median difference (90 % distribution-free CI)",[5]; ketoconazole + midostaurin vs placebo + midostaurin,"116.7 (93.9, 117.9) h"
same,bound to AAG,[6],88–98%
Cc1ncc2n1-c1ccc(Cl)cc1C(c1ccccc1F)=NC2 [Midazolam],Adverse event: Abdominal distension,[7]; [11],0 n (%)
same,Adverse event: Any preferred term,[7]; [11],3 (15.0) n (%)
same,Adverse event: Back pain,[7]; [11],0 n (%)
same,Adverse event: Chromaturia,[7]; [11],0 n (%)
same,Adverse event: Cough,[7]; [11],0 n (%)
same,Adverse event: Diarrhea,[7]; [11],0 n (%)
same,Adverse event: Discolored feces,[7]; [11],0 n (%)
same,Adverse event: Dizziness,[7]; [11],0 n (%)
same,Adverse event: Dry skin,[7]; [11],0 n (%)
same,Adverse event: Dyspepsia,[7]; [11],0 n (%)
same,Adverse event: Feeling cold,[7]; [11],0 n (%)
same,Adverse event: Feeling hot,[7]; [11],0 n (%)
same,Adverse event: Flatulence,[7]; [11],0 n (%)
same,Adverse event: Headache,[7]; [11],2 (10.0) n (%)
same,Adverse event: Hot flush,[7]; [11],0 n (%)
same,Adverse event: Nasopharyngitis,[7]; [11],0 n (%)
same,Adverse event: Nausea,[7]; [11],0 n (%)
same,Adverse event: Palpitations,[7]; [11],0 n (%)
same,Adverse event: Pharyngolaryngeal pain,[7]; [11],0 n (%)
same,Adverse event: Restlessness,[7]; [11],0 n (%)
same,Adverse event: Rhinitis,[7]; [11],0 n (%)
same,Adverse event: Sleep disorder,[7]; [11],0 n (%)
same,Adverse event: Somnolence,[7]; [11],1 (5.0) n (%)
same,Adverse event: Vomiting,[7]; [11],0 n (%)
same,Adverse event: Abdominal distension,[7]; [12],0 n (%)
same,Adverse event: Any preferred term,[7]; [12],3 (16.7) n (%)
same,Adverse event: Back pain,[7]; [12],0 n (%)
same,Adverse event: Chromaturia,[7]; [12],0 n (%)
same,Adverse event: Cough,[7]; [12],0 n (%)
same,Adverse event: Diarrhea,[7]; [12],0 n (%)
same,Adverse event: Discolored feces,[7]; [12],0 n (%)
same,Adverse event: Dizziness,[7]; [12],0 n (%)
same,Adverse event: Dry skin,[7]; [12],0 n (%)
same,Adverse event: Dyspepsia,[7]; [12],0 n (%)
same,Adverse event: Feeling cold,[7]; [12],0 n (%)
same,Adverse event: Feeling hot,[7]; [12],0 n (%)
same,Adverse event: Flatulence,[7]; [12],0 n (%)
same,Adverse event: Headache,[7]; [12],2 (11.1) n (%)
same,Adverse event: Hot flush,[7]; [12],0 n (%)
same,Adverse event: Nasopharyngitis,[7]; [12],1 (5.6) n (%)
same,Adverse event: Nausea,[7]; [12],0 n (%)
same,Adverse event: Palpitations,[7]; [12],0 n (%)
same,Adverse event: Pharyngolaryngeal pain,[7]; [12],0 n (%)
same,Adverse event: Restlessness,[7]; [12],0 n (%)
same,Adverse event: Rhinitis,[7]; [12],0 n (%)
same,Adverse event: Sleep disorder,[7]; [12],0 n (%)
same,Adverse event: Somnolence,[7]; [12],0 n (%)
same,Adverse event: Vomiting,[7]; [12],0 n (%)
same,change in AUCinf,[8]; day 3 (co-administration of midostaurin) vs day 1,No change
same,average decrease in C max,[8]; day 3 (co-administration of midostaurin) vs midazolam alone day 1,1.2 fold
same,average decrease in AUCinf,[8]; [13],1.1 fold
same,average decrease in C max,[8]; [13],1.1 fold
same,"t max, Hodges–Lehmann estimate of median difference (90 % distribution-free CI)",[8]; day 8/day 1 comparison,0.12 (−0.12 to 0.26)^c h
same,Tmax,"[8]; human, plasma, oral, 4 mg",0.5 h
same,AUC(0-inf),"[8]; human, plasma, oral, 4 mg, plasma, Midazolam (day 1), midazolam 4 mg alone, n = 18",49.7 ng·h/mL
same,AUC(0-inf),"[8]; human, plasma, oral, 4 mg, plasma, Midazolam (day 8), midazolam 4 mg alone after repeated midostaurin, n = 18",47 ng·h/mL
same,AUC(0-t),[8]; [14],43.1 ng·h/mL
same,AUC(0-t),[8]; [15],40.8 ng·h/mL
same,Cmax,[8]; [14],13.5 ng/mL
same,Cmax,[8]; [15],12.2 ng/mL
same,AUC(0-inf),"[8]; human, plasma, oral, plasma, Midazolam + midostaurin (day 3), midazolam 4 mg + midostaurin 100 mg, n = 18",49.6 ng·h/mL
same,AUC(0-t),[8]; [16],40.2 ng·h/mL
same,Cmax,[8]; [16],11 ng/mL
same,"t max, median","[8]; plasma, Midazolam (day 8), n = 18",0.50 h
